Assay results published in patent US20230276831A1, “Food/Beverage Article” (Kikkoman Corporation, priority 2020, published 2023).

Test system: Lactobacillus rennini (DSM 20253)
Assay: Antimicrobial action of licoricidin in soy sauce at various pH (Test Example 5)
Assay type: cell-based
Parameters: key: A: The bacterial count decreases to less than 10% of the bacterial count of the control group.; B: The bacterial count decreases to 10% or more and less than 50% of the bacterial count of the control group.; C: The bacterial count decreases to 50% or more and less than 100% of the bacterial count of control group.; D: The bacterial count is the same as the bacterial count of the control group
Procedure: Commercially available whole soybean soy sauce (produced by Kikkoman Corporation) was electrodialyzed and then concentrated under reduced pressure to obtain soy sauce at a salt concentration of 0% (w/v) and an alcohol concentration of 0% (v/v). Then, salt and/or alcohol was added to the above-mentioned obtained soy sauce, and hydrochloric acid or an aqueous sodium hydroxide solution was then added to adjust the pH to a desired pH. Germfree purified water was added, and the mixture was then heat-treated to produce soy sauce at the salt concentration, the alcohol concentration, and the pH shown in the following Table 17.
Licoricidin (produced by ChemFaces) was added to each of the obtained soy sauces to concentrations of 1 ppm, 5 ppm, 10 ppm, 25 ppm, and 50 ppm. Lactic acid bacteria (Lactobacillus rennini (DSM 20253)) were then added to 10^6 to 10^7 cells/mL and cultured at 30° C. for 7 days. After the culture, the number of lactic acid bacteria was measured using the GAM agar medium “Nissui”. Soy sauce to which licoricidin was not added was used as a control group, and the antimicrobial activity was evaluated in comparison with the number of lactic acid bacteria in the control group. The evaluation was performed using the same criterion as in Test Example 4.

`COc1c(CC=C(C)C)c(O)cc2c1C[C@H](c1ccc(O)c(CC=C(C)C)c1O)CO2` [Licoricidin, 4-[(R)-7-hydroxy-5-methoxy-6-(3-methyl-2-butenyl)chroman-3-yl]-2-(3-methyl-2-butenyl)-1,3-benzenediol] was tested, and the Antimicrobial activity (salt 0% (w/v), pH 4.2, alcohol 0% (v/v), licoricidin 1 ppm) was “B (The bacterial count decreases to 10% or more and less than 50% of the bacterial count of the control group.)”, the Antimicrobial activity (salt 0% (w/v), pH 4.2, alcohol 0% (v/v), licoricidin 5 ppm) was “B (The bacterial count decreases to 10% or more and less than 50% of the bacterial count of the control group.)” and the Antimicrobial activity (salt 0% (w/v), pH 4.2, alcohol 0% (v/v), licoricidin 10 ppm) was “A (The bacterial count decreases to less than 10% of the bacterial count of the control group.)”. For the same compound, the Antimicrobial activity (salt 0% (w/v), pH 4.2, alcohol 0% (v/v), licoricidin 25 ppm) was “A (The bacterial count decreases to less than 10% of the bacterial count of the control group.)”, the Antimicrobial activity (salt 0% (w/v), pH 4.2, alcohol 0% (v/v), licoricidin 50 ppm) was “A (The bacterial count decreases to less than 10% of the bacterial count of the control group.)” and the Antimicrobial activity (salt 0% (w/v), pH 4.2, alcohol 5% (v/v), licoricidin 1 ppm) was “B (The bacterial count decreases to 10% or more and less than 50% of the bacterial count of the control group.)”. For the same compound, the Antimicrobial activity (salt 0% (w/v), pH 4.2, alcohol 5% (v/v), licoricidin 5 ppm) was “A (The bacterial count decreases to less than 10% of the bacterial count of the control group.)”, the Antimicrobial activity (salt 0% (w/v), pH 4.2, alcohol 5% (v/v), licoricidin 10 ppm) was “A (The bacterial count decreases to less than 10% of the bacterial count of the control group.)” and the Antimicrobial activity (salt 0% (w/v), pH 4.2, alcohol 5% (v/v), licoricidin 25 ppm) was “A (The bacterial count decreases to less than 10% of the bacterial count of the control group.)”. The Antimicrobial activity (salt 0% (w/v), pH 4.2, alcohol 5% (v/v), licoricidin 50 ppm) was “A (The bacterial count decreases to less than 10% of the bacterial count of the control group.)”, the Antimicrobial activity (salt 0% (w/v), pH 4.6, alcohol 0% (v/v), licoricidin 1 ppm) was “C (The bacterial count decreases to 50% or more and less than 100% of the bacterial count of control group.)” and the Antimicrobial activity (salt 0% (w/v), pH 4.6, alcohol 0% (v/v), licoricidin 5 ppm) was “B (The bacterial count decreases to 10% or more and less than 50% of the bacterial count of the control group.)”. For the same compound, the Antimicrobial activity (salt 0% (w/v), pH 4.6, alcohol 0% (v/v), licoricidin 10 ppm) was “A (The bacterial count decreases to less than 10% of the bacterial count of the control group.)”, the Antimicrobial activity (salt 0% (w/v), pH 4.6, alcohol 0% (v/v), licoricidin 25 ppm) was “A (The bacterial count decreases to less than 10% of the bacterial count of the control group.)” and the Antimicrobial activity (salt 0% (w/v), pH 4.6, alcohol 0% (v/v), licoricidin 50 ppm) was “A (The bacterial count decreases to less than 10% of the bacterial count of the control group.)”. For the same compound, the Antimicrobial activity (salt 0% (w/v), pH 4.6, alcohol 5% (v/v), licoricidin 1 ppm) was “C (The bacterial count decreases to 50% or more and less than 100% of the bacterial count of control group.)”, the Antimicrobial activity (salt 0% (w/v), pH 4.6, alcohol 5% (v/v), licoricidin 5 ppm) was “A (The bacterial count decreases to less than 10% of the bacterial count of the control group.)” and the Antimicrobial activity (salt 0% (w/v), pH 4.6, alcohol 5% (v/v), licoricidin 10 ppm) was “A (The bacterial count decreases to less than 10% of the bacterial count of the control group.)”. The Antimicrobial activity (salt 0% (w/v), pH 4.6, alcohol 5% (v/v), licoricidin 25 ppm) was “A (The bacterial count decreases to less than 10% of the bacterial count of the control group.)”, the Antimicrobial activity (salt 0% (w/v), pH 4.6, alcohol 5% (v/v), licoricidin 50 ppm) was “A (The bacterial count decreases to less than 10% of the bacterial count of the control group.)” and the Antimicrobial activity (salt 0% (w/v), pH 5.0, alcohol 0% (v/v), licoricidin 1 ppm) was “D”. The Antimicrobial activity (salt 0% (w/v), pH 5.0, alcohol 0% (v/v), licoricidin 5 ppm) was “B (The bacterial count decreases to 10% or more and less than 50% of the bacterial count of the control group.)”, the Antimicrobial activity (salt 0% (w/v), pH 5.0, alcohol 0% (v/v), licoricidin 10 ppm) was “B (The bacterial count decreases to 10% or more and less than 50% of the bacterial count of the control group.)” and the Antimicrobial activity (salt 0% (w/v), pH 5.0, alcohol 0% (v/v), licoricidin 25 ppm) was “A (The bacterial count decreases to less than 10% of the bacterial count of the control group.)”. For the same compound, the Antimicrobial activity (salt 0% (w/v), pH 5.0, alcohol 0% (v/v), licoricidin 50 ppm) was “A (The bacterial count decreases to less than 10% of the bacterial count of the control group.)”, the Antimicrobial activity (salt 0% (w/v), pH 5.0, alcohol 5% (v/v), licoricidin 1 ppm) was “C (The bacterial count decreases to 50% or more and less than 100% of the bacterial count of control group.)” and the Antimicrobial activity (salt 0% (w/v), pH 5.0, alcohol 5% (v/v), licoricidin 5 ppm) was “B (The bacterial count decreases to 10% or more and less than 50% of the bacterial count of the control group.)”. For the same compound, the Antimicrobial activity (salt 0% (w/v), pH 5.0, alcohol 5% (v/v), licoricidin 10 ppm) was “B (The bacterial count decreases to 10% or more and less than 50% of the bacterial count of the control group.)”, the Antimicrobial activity (salt 0% (w/v), pH 5.0, alcohol 5% (v/v), licoricidin 25 ppm) was “A (The bacterial count decreases to less than 10% of the bacterial count of the control group.)” and the Antimicrobial activity (salt 0% (w/v), pH 5.0, alcohol 5% (v/v), licoricidin 50 ppm) was “A (The bacterial count decreases to less than 10% of the bacterial count of the control group.)”. The Antimicrobial activity (salt 0% (w/v), pH 5.4, alcohol 0% (v/v), licoricidin 1 ppm) was “D”, the Antimicrobial activity (salt 0% (w/v), pH 5.4, alcohol 0% (v/v), licoricidin 5 ppm) was “D” and the Antimicrobial activity (salt 0% (w/v), pH 5.4, alcohol 0% (v/v), licoricidin 10 ppm) was “C (The bacterial count decreases to 50% or more and less than 100% of the bacterial count of control group.)”. For the same compound, the Antimicrobial activity (salt 0% (w/v), pH 5.4, alcohol 0% (v/v), licoricidin 25 ppm) was “C (The bacterial count decreases to 50% or more and less than 100% of the bacterial count of control group.)”, the Antimicrobial activity (salt 0% (w/v), pH 5.4, alcohol 0% (v/v), licoricidin 50 ppm) was “C (The bacterial count decreases to 50% or more and less than 100% of the bacterial count of control group.)” and the Antimicrobial activity (salt 0% (w/v), pH 5.4, alcohol 5% (v/v), licoricidin 1 ppm) was “B (The bacterial count decreases to 10% or more and less than 50% of the bacterial count of the control group.)”. The Antimicrobial activity (salt 0% (w/v), pH 5.4, alcohol 5% (v/v), licoricidin 5 ppm) was “A (The bacterial count decreases to less than 10% of the bacterial count of the control group.)”, the Antimicrobial activity (salt 0% (w/v), pH 5.4, alcohol 5% (v/v), licoricidin 10 ppm) was “A (The bacterial count decreases to less than 10% of the bacterial count of the control group.)” and the Antimicrobial activity (salt 0% (w/v), pH 5.4, alcohol 5% (v/v), licoricidin 25 ppm) was “A (The bacterial count decreases to less than 10% of the bacterial count of the control group.)”. For the same compound, the Antimicrobial activity (salt 0% (w/v), pH 5.4, alcohol 5% (v/v), licoricidin 50 ppm) was “A (The bacterial count decreases to less than 10% of the bacterial count of the control group.)”, the Antimicrobial activity (salt 0% (w/v), pH 5.8, alcohol 0% (v/v), licoricidin 1 ppm) was “D” and the Antimicrobial activity (salt 0% (w/v), pH 5.8, alcohol 0% (v/v), licoricidin 5 ppm) was “D”. For the same compound, the Antimicrobial activity (salt 0% (w/v), pH 5.8, alcohol 0% (v/v), licoricidin 10 ppm) was “D”, the Antimicrobial activity (salt 0% (w/v), pH 5.8, alcohol 0% (v/v), licoricidin 25 ppm) was “D” and the Antimicrobial activity (salt 0% (w/v), pH 5.8, alcohol 0% (v/v), licoricidin 50 ppm) was “D”. For the same compound, the Antimicrobial activity (salt 0% (w/v), pH 5.8, alcohol 5% (v/v), licoricidin 1 ppm) was “B (The bacterial count decreases to 10% or more and less than 50% of the bacterial count of the control group.)”, the Antimicrobial activity (salt 0% (w/v), pH 5.8, alcohol 5% (v/v), licoricidin 5 ppm) was “A (The bacterial count decreases to less than 10% of the bacterial count of the control group.)” and the Antimicrobial activity (salt 0% (w/v), pH 5.8, alcohol 5% (v/v), licoricidin 10 ppm) was “A (The bacterial count decreases to less than 10% of the bacterial count of the control group.)”. For the same compound, the Antimicrobial activity (salt 0% (w/v), pH 5.8, alcohol 5% (v/v), licoricidin 25 ppm) was “A (The bacterial count decreases to less than 10% of the bacterial count of the control group.)”, the Antimicrobial activity (salt 0% (w/v), pH 5.8, alcohol 5% (v/v), licoricidin 50 ppm) was “A (The bacterial count decreases to less than 10% of the bacterial count of the control group.)” and the Antimicrobial activity (salt 4% (w/v), pH 4.2, alcohol 0% (v/v), licoricidin 1 ppm) was “B (The bacterial count decreases to 10% or more and less than 50% of the bacterial count of the control group.)”. For the same compound, the Antimicrobial activity (salt 4% (w/v), pH 4.2, alcohol 0% (v/v), licoricidin 5 ppm) was “A (The bacterial count decreases to less than 10% of the bacterial count of the control group.)”, the Antimicrobial activity (salt 4% (w/v), pH 4.2, alcohol 0% (v/v), licoricidin 10 ppm) was “A (The bacterial count decreases to less than 10% of the bacterial count of the control group.)” and the Antimicrobial activity (salt 4% (w/v), pH 4.2, alcohol 0% (v/v), licoricidin 25 ppm) was “A (The bacterial count decreases to less than 10% of the bacterial count of the control group.)”. The Antimicrobial activity (salt 4% (w/v), pH 4.2, alcohol 0% (v/v), licoricidin 50 ppm) was “A (The bacterial count decreases to less than 10% of the bacterial count of the control group.)”.
